Source: patent US20260258064A1 (SIRONAX LTD., priority 2023, published 2026)
pIC50: −log10 of the molar value.

What follows are compounds tested against T1, SARM1 (50-724) (Homo sapiens, UniProt Q6SZW1) (assay: SARM1 (50-724) enzymatic assay (LC-MS/MS)). Details: Purified SARM1 (50-724) 2 nM, NMN as activator, NAD+ as substrate, 1 h at room temperature, read-out: IC50 (SARM1 inhibitory activity).
T1 construct: Purified SARM1 (50-724) with a final concentration of 2 nM was pre-incubated with a test compound
T1 sequence (Q6SZW1 50-724): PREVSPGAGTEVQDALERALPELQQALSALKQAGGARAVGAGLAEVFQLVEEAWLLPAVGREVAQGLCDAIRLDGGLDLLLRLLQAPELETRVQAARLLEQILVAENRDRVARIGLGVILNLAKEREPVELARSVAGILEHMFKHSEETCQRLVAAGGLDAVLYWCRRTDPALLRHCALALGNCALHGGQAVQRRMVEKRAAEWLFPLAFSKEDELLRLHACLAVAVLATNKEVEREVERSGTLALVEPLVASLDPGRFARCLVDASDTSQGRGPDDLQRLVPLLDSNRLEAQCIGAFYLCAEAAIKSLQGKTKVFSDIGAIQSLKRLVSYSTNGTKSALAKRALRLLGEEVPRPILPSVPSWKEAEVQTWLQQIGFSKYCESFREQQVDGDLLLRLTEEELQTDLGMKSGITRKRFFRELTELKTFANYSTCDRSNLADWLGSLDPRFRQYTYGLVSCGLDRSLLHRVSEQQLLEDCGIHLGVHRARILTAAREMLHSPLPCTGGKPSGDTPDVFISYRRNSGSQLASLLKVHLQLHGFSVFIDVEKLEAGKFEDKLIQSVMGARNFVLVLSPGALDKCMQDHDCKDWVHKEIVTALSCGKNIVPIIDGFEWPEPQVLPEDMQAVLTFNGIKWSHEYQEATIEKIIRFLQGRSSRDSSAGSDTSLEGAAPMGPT
Assay type: biochemical
How it was run: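 Human SARM1 (50-724), 2 nM, pre-incubated 15 min at room temperature with compound in Dulbecco's PBS. Reaction started with 200 µM NMN (activator) plus […] NAD^+ substrate, run 1 h at room temperature, quenched with 70% acetonitrile. Turnover quantified by LC-MS/MS; IC50 reported.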

pIC50	Structure (SMILES)
6.30 to 7.00	COC(C)(c1ccc2[nH]c(-c3nncn3-c3ccc(F)c(F)c3Cl)nc2c1)C1COC1 (stereo not shown) [Compound 150, 2-(4-(2-chloro-3,4-difluorophenyl)-4H-1,2,4-triazol-3-yl)-5-(1-methoxy-1-(oxetan-3-yl)ethyl)-1H-benzo[d]imidazole]
≥ 7.00	CS(=O)(=O)Cc1nnc(-c2nc3cc(C(F)(F)F)ccc3[nH]2)n1-c1cccc(Cl)c1Cl [Example 88, 2-(4-(2,3-dichlorophenyl)-5-((methylsulfonyl)methyl)-4H-1,2,4-triazol-3-yl)-5-(trifluoromethyl)-1H-benzo[d]imidazole]
≥ 7.00	CC(C)(O)c1ccc2[nH]c(-c3nnccc3-c3cnccc3C(F)(F)F)nc2c1F [Compound 343, 2-(4-Fluoro-2-(4-(4-(trifluoromethyl)pyridin-3-yl)pyridazin-3-yl)-1H-benzo[d]imidazol-5-yl)propan-2-ol]
≥ 7.00	OCC1(c2ccc3[nH]c(-c4nncn4-c4cccc(Cl)c4Cl)nc3c2)CCC1 [Example 130]
≥ 7.00	Cc1cncc(-n2cnnc2-c2nc3cc(C(F)(F)F)ccc3[nH]2)c1Cl [Example 123]
≥ 7.00	FC(F)(Cl)Oc1cnccc1-n1cnnc1-c1nc2cc(C(F)(F)F)ccc2[nH]1 [Compound 215, 2-(4-(3-(chlorodifluoromethoxy)pyridin-4-yl)-4H-1,2,4-triazol-3-yl)-5-(trifluoromethyl)-1H-benzo[d]imidazole]
< 6.00	Cc1ccc2[nH]c(-n3c(C4CCCC4)n[nH]c3=O)nc2c1 [Compound 12, 5-cyclopentyl-4-(5-methyl-1H-benzo[d]imidazol-2-yl)-2,4-dihydro-3H-1,2,4-triazol-3-one]
≥ 7.00	COc1cc(-n2cnnc2-c2nc3cc(C(F)(F)F)ccc3[nH]2)c(OC(F)(F)F)cn1 [Compound 210, 2-(4-(2-methoxy-5-(trifluoromethoxy)pyridin-4-yl)-4H-1,2,4-triazol-3-yl)-5-(trifluoromethyl)-1H-benzo[d]imidazole]
6.30 to 7.00	FC(F)(F)c1ccc2[nH]c(-c3nnc(S)n3-c3cccc(Cl)c3Cl)nc2c1 [Example 108, 4-(2,3-dichlorophenyl)-5-(5-(trifluoromethyl)-1H-benzo[d]imidazol-2-yl)-4H-1,2,4-triazole-3-thiol]
≥ 7.00	Fc1ccc(-n2cnnc2-c2nc3cc(C(F)(F)F)cnc3[nH]2)c(Cl)c1F [Compound 170, 2-(4-(2-chloro-3,4-difluorophenyl)-4H-1,2,4-triazol-3-yl)-6-(trifluoromethyl)-3H-imidazo[4,5-b]pyridine]
≥ 7.00	N#CC1CC1c1ccc2[nH]c(-c3nncn3-c3cnccc3C(F)(F)F)nc2c1F (stereo not shown) [Compound 320, 2-(4-fluoro-2-(4-(4-(trifluoromethyl)pyridin-3-yl)-4H-1,2,4-triazol-3-yl)-1H-benzo[d]imidazol-5-yl)cyclopropane-1-carbonitrile]
≥ 7.00	C[S+]([O-])Cc1nnc(-c2nc3cc(C(F)(F)F)ccc3[nH]2)n1-c1cccc(Cl)c1Cl (single isomer, unassigned) [Compound 146, 2-(4-(2,3-dichlorophenyl)-5-((methylsulfinyl)methyl)-4H-1,2,4-triazol-3-yl)-5-(trifluoromethyl)-1H-benzo[d]imidazole]
≥ 7.00	CC(C)(CO)c1ccc2[nH]c(-c3nncn3-c3cccc(Cl)c3Cl)nc2c1 [Example 103]
≥ 7.00	CN(CCCO)c1cc(F)c2[nH]c(-c3nncn3-c3cnccc3C(F)(F)F)nc2c1 [Compound 451, 3-((4-fluoro-2-(4-(4-(trifluoromethyl)pyridin-3-yl)-4H-1,2,4-triazol-3-yl)-1H-benzo[d]imidazol-6-yl)(methyl)amino)propan-1-ol]
≥ 7.00	OCc1nnc(-c2nc3cc(C(F)(F)F)ccc3[nH]2)n1-c1cccc(Cl)c1Cl [Example 90]
≥ 7.00	Fc1cc(C2CC2COC(F)F)cc2nc(-c3nncn3-c3cnccc3C(F)(F)F)[nH]c12 (stereo not shown) [Compound 440, 5-(2-((difluoromethoxy)methyl)cyclopropyl)-7-fluoro-2-(4-(4-(trifluoromethyl)-pyridin-3-yl)-4H-1,2,4-triazol-3-yl)-1H-benzo[d]imidazole]

The remaining lines, values behind:

Structure (SMILES)	pIC50
Oc1cc(F)c(Cl)c(-n2cnnc2-c2nc3cc(C(F)(F)F)cc(F)c3[nH]2)c1 [Compound 206, 4-chloro-3-fluoro-5-(3-(7-fluoro-5-(trifluoromethyl)-1H-benzo[d]imidazol-2-yl)-4H-1,2,4-triazol-4-yl)phenol]	≥ 7.00
[2H]c1cncc(-n2c([2H])nnc2-c2nc3c(F)c(C4([2H])CC4)ccc3[nH]2)c1C(F)(F)F [Compound 372, 5-(cyclopropyl-1-d)-4-fluoro-2-(4-(4-(trifluoromethyl)pyridin-3-yl-5-d)-4H-1,2,4-triazol-3-yl-5-d)-1H-benzo[d]imidazole]	≥ 7.00
O=S1(=O)Cc2ccc3[nH]c(-c4nncn4-c4cccc(F)c4Cl)nc3c2C1 [Compound 198, 2-(4-(2-chloro-3-fluorophenyl)-4H-1,2,4-triazol-3-yl)-6,8-dihydro-3H-thieno[3',4':3,4]benzo[1,2-d]imidazole 7,7-dioxide]	< 6.00
Fc1cccc(-n2nccc2-c2nc3cc(C(F)(F)F)ccc3[nH]2)c1Cl [Compound 443, 2-(1-(2-chloro-3-fluorophenyl)-1H-pyrazol-5-yl)-5-(trifluoromethyl)-1H-benzo[d]imidazole]	6.30 to 7.00
Cc1nocc1-n1cnnc1-c1nc2cc(C(F)(F)F)ccc2[nH]1 [Compound 269, 3-methyl-4-(3-(5-(trifluoromethyl)-1H-benzo[d]imidazol-2-yl)-4H-1,2,4-triazol-4-yl)isoxazole]	< 6.00
Cn1cc(OC(F)(F)F)c(-n2cnnc2-c2nc3c(F)c(C4CC4)ccc3[nH]2)cc1=O [Compound 354, 4-(3-(5-cyclopropyl-4-fluoro-1H-benzo[d]imidazol-2-yl)-4H-1,2,4-triazol-4-yl)-1-methyl-5-(trifluoromethoxy)pyridin-2(1H)-one]	≥ 7.00
Cc1ccc2[nH]c(-c3nncn3C3CCCC3)nc2c1 [Example 1, 2-(4-cyclopentyl-4H-1,2,4-triazol-3-yl)-5-methyl-1H-benzo[d]imidazole]	< 6.00
FC(F)(F)c1ccc2[nH]c(-c3nncn3-c3cccn4ccnc34)nc2c1 [Example 70]	< 6.00
FC(F)(F)Oc1cnc(-n2cccn2)cc1-n1cnnc1-c1nc2cc(C(F)(F)F)ccc2[nH]1 [Compound 264, 2-(4-(2-(1H-pyrazol-1-yl)-5-(trifluoromethoxy)pyridin-4-yl)-4H-1,2,4-triazol-3-yl)-5-(trifluoromethyl)-1H-benzo[d]imidazole]	≥ 7.00
CC(O)C(C)(C)c1ccc2[nH]c(-c3nncn3-c3cccc(Cl)c3Cl)nc2c1 (stereo not shown) [Compound 140, 3-(2-(4-(2,3-dichlorophenyl)-4H-1,2,4-triazol-3-yl)-1H-benzo[d]imidazol-5-yl)-3-methylbutan-2-ol]	≥ 7.00
CC(C)(C)c1ccc2[nH]c(-c3nncn3-c3nc(O)ccc3Cl)nc2c1 [Compound 148, 6-(3-(5-(tert-butyl)-1H-benzo[d]imidazol-2-yl)-4H-1,2,4-triazol-4-yl)-5-chloropyridin-2(1H)-one]	≥ 7.00
O=C1CCCN1c1ccc2[nH]c(-c3nncn3-c3cccc(Cl)c3Cl)nc2c1 [Example 137, 1-(2-(4-(2,3-dichlorophenyl)-4H-1,2,4-triazol-3-yl)-1H-benzo[d]imidazol-5-yl)pyrrolidin-2-one]	< 6.00
